Data taken from patent US10782292B2, “Antibiotic susceptibility testing via plasmonic imaging and tracking” (priority 2015, dated 2020).
Entries after “also recorded” stand apart in the source; their conditions may differ.

How the values were obtained:
E. coli O157:H7 [1] = assay: Plasmonic imaging and tracking (PIT) of Z-movement (nanomotion) of single antibody-tethered bacterial cells; assay type: cell-based
E. coli O157:H7 [2] = assay: Culturing in LB medium after antibiotic treatment on the sensor chip (validation of cell death); assay type: cell-based
From the text: […] the addition of polymyxin B, Z-movement decreases from ±5 nm to ±0.5 nm, which is close to the Brownian motion of a dead bacterium. We further validated the metabolic state by culturing and elongating the tethered cell in standard Luria Broth (LB) media before adding the antibiotic.
Referring now to FIG. […] PMB is a bactericidal antibiotic which kills Gram-negative bacteria by permeabilizing the outer membrane.^60 At high concentrations, […], PMB also depolarizes the cytoplasmic membrane, causing ion-permeable pores in the cell envelope.^30 Within a few seconds after adding the antibiotic, there was a marked decrease in the Z-movement of the bacterial cell from about ±3 to about ±1 nm. We further observed that after a few minutes, the bacterial cell Z-movement reached a baseline value of ±0.5 nm. […] The decrease in bacterial cell length has been previously correlated to cell lysis and cell death after the addition of polypeptide antibiotics.^69 We validated the correlation between the decreases in nanomotion and change of the bacterial metabolic state by replacing the antibiotic-containing PBS with LB medium (lacking PMB) on the sensor chip. […] We subsequently collected a small sample volume from the above sensor chip and subjected it to culturing overnight in LB medium.
Referring now specifically to FIG. 3D, there shown are control experiment data comparing Z-movement in PBS 102 and on injections of 2% glucose 104, 1×PBS 106, and antibiotic 108. […] After subsequently eliminating glucose in the 1×PBS medium, the amplitude of the nanomotion, measured over 1 s windows for 20 s videos, decreased back to the level prior to the injection of glucose (as shown in FIG. 3E). The positive correlation between glucose injection and Z-movement strongly supports that bacterial cell nanomotion originates from metabolic activity rather than Brownian motion.

[3] = test system: UPEC E. coli strain CFT073; assay: PIT of Z-movement (nanomotion) of UPEC cells immobilized with APTES linker; assay type: cell-based; details: PMB 1 mg/mL, APTES surface, 1×PBS, FIG. 12
Protocol: We immobilized the UPEC strain on the sensor using the (3-aminopropyl)-triethoxysilane (APTES) linker, rather than using the antibody immobilization for the E. coli O157:H7 study described above. We studied the nanomotion changes as antibiotic PMB acted on bacterial cells at a bactericidal concentration of 1 mg/mL. […] These experiments indicate that the methods may be used for different bacterial strains and different antibiotics. To fully establish the present method for rapid AST in clinical settings, additional and more comprehensive tests will still be needed in the future.
An aliquot of frozen E. coli O157:H7 or E. coli CFT073 strain was thawed and used to inoculate 10 mL of LB medium. […]
All plasmonic imaging sequences were collected at 106 fps at a pixel resolution of 640×480. […] Images were recorded in either transmitted or plasmonic imaging mode for various time durations. […]
More specifically, the plasmonic image intensity was calculated by obtaining averaged intensity within a fixed area around the bacterial cell using the bare gold chip regions as reference. The Z-distance of the bacterial cell above the sensor surface was then calculated from the plasmonic image intensity (Iz) with a calibrated curve, given by Iz=I0 exp(−Δz/L), where I0 is a constant, Δz is the z displacement of a bacterial cell, and L is the decay constant. […]

UPEC strain = assay: Overnight culturing in LB medium after antibiotic treatment (validation of cell death), UPEC; assay type: cell-based, E. coli CFT073; details: after PMB 1 mg/mL
E. coli O157:H7 [4] = assay: Transmitted microscope image of bacterial cell length after adding antibiotic; assay type: cell-based
Protocol: Referring now to FIG. 3C the effect of antibiotic polymycin B at a concentration of 500 μg/mL on Z-movement of a bacterial cell is shown. […] PMB is a bactericidal antibiotic which kills Gram-negative bacteria by permeabilizing the outer membrane.^60 At high concentrations, such as […] used in this study, PMB also depolarizes the cytoplasmic membrane, causing ion-permeable pores in the cell envelope.^30 Within a few seconds after adding the antibiotic, there was a marked decrease in the Z-movement of the bacterial cell from about ±3 to about ±1 nm. We further observed that after a few minutes, the bacterial cell Z-movement reached a baseline value of ±0.5 nm. […]
Referring now specifically to FIG. 3D, there shown are control experiment data comparing Z-movement in PBS 102 and on injections of 2% glucose 104, 1×PBS 106, and antibiotic 108. […] After subsequently eliminating glucose in the 1×PBS medium, the amplitude of the nanomotion, measured over 1 s windows for 20 s videos, decreased back to the level prior to the injection of glucose (as shown in FIG. 3E). […]
All plasmonic imaging sequences were collected at 106 fps at a pixel resolution of 640×480. […] Images were recorded in either transmitted or plasmonic imaging mode for various time durations.

Gram-negative bacteria = details: literature reference 30; cited from earlier work

In the case of `[H]/N=C(/N)N[C@H]1[C@H](O)[C@@H](O)[C@H](O[C@@H]2O[C@@H](C)[C@](O)(C=O)[C@H]2O[C@@H]2O[C@@H](CO)[C@H](O)[C@@H](O)[C@@H]2NC)[C@@H](N/C(N)=N\[H])[C@@H]1O` [streptomycin], the “Change in nanomotion (Z-movement) after streptomycin” value (E. coli O157:H7 [1]; streptomycin 1 mg/mL, PBS supplemented with LB (0.4×LB media), FIG. 13) is reported as “decrease in nano-motion; also recorded: decrease in the nanomotion” and the “Overnight culturing after streptomycin” value (E. coli O157:H7 [2]; after streptomycin 1 mg/ml) is reported as “confirmed the death of the bacteria”.
In the case of Polymyxin B, the “Change in nanomotion (Z-movement) at sub-bactericidal concentration” value (E. coli O157:H7 [1]; 0.5 μg/ml (b80 prints 0.5 g/mL), after 20 min, 1×PBS, FIG. 10, listed as PMB) is reported as “did not observe changes in the nanomotion; also recorded: does not change the Z-movement”, the “Change in nanomotion (Z-movement) at 5× bactericidal concentration” value (E. coli O157:H7 [1]; 100 μg/m, 1×PBS, FIG. 10, listed as PMB) is reported as “significant decrease in nanomotion; also recorded: large decrease in Z-movement” and the “Change in nanomotion after antibiotic in glucose control experiment” value (E. coli O157:H7 [1]; PMB 75 µg/mL (bactericidal concentration), FIG. 3D) is reported as “decrease in bacterial nanomotion”. The “Change in Z-motion of a bacterial cell after adding antibiotic” value (E. coli O157:H7 [1]; added at t=120 s, FIG. 3A) was “large drop in Z-motion”, the “Nanomotion after replacing antibiotic-containing PBS with LB medium” value (E. coli O157:H7 [1]; after PMB 500 µg/mL, LB lacking PMB) was “no further change in the bacterial nanomotion” and the “Change in nanomotion (Z-movement) of UPEC cells” value ([3]; listed as PMB) was “decrease in bacterial nanomotion”. For the same compound, the “Change in nanomotion (Z-movement) of UPEC cells” value ([3]; listed as polymycin B) was “large decrease in the nano-motion”, the “Bacterial growth on overnight culturing in LB medium” value (E. coli O157:H7 [2]; after PMB 75 µg/mL) was “no bacterial growth” and the “Cellular growth on subsequent incubation in LB media” value (E. coli O157:H7 [2]; after polymyxin B 75 μg/ml) was “did not lead to cellular growth”. For the same compound, the “Growth of bacterial cells after overnight incubation in LB medium” value (E. coli O157:H7 [2]; sample from sensor chip after PMB 500 µg/mL) was “no growth of bacterial cells”, the “Overnight culturing in LB medium of UPEC sample” value (UPEC strain; listed as PMB) was “no bacterial growth” and the “Overnight culturing in LB medium of UPEC sample” value (UPEC strain; listed as polymycin B) was “confirmed the death of the bacteria”. For the same compound, the “Cell length in transmitted microscope image after antibiotic” value (E. coli O157:H7 [4]; PMB 75 µg/mL, FIG. 11) was “visible decrease in cell length”, the “Bacterial cell length after adding antibiotic” value (E. coli O157:H7 [4]; high antibiotic concentration (500 g/mL study)) was “decreases in bacterial cell length” and the “Concentration at which bactericidal activity has been observed” value (Gram-negative bacteria) was 20 g/mL.
